The text below walks through data of patent publication US10563197B2, “Use of a combination of Dbait molecule and PARP inhibitors to treat cancer” (INSTITUT CURIE, priority 2015, dated 2020).

In one series the test system is Jurkat. Kind of series: Cell survival, trypan blue counting. It counts as cell-based, human. Particulars: 4.80 μM of AsiDNA and/or 0.1 μM of Ola; day 6 after treatment.
For a further series, the system named is BC227. As to the kind of experiment: Cell survival, trypan blue counting. It counts as cell-based, human. The note with it: 4.80 μM of AsiDNA and/or 0.1 μM of Ola; day 6 after treatment; listed as Ola.
The next series has as its system HeLa PARP1 KD. Kind of series: Cell survival, trypan blue counting. The series is classed as cell-based, human. Particulars: 4.80 μM of AsiDNA and/or 0.1 μM of Ola; day 6 after treatment.
In the next series the test system is 3 BC cell lines. As to the kind of experiment: Combined treatment survival in BC cell lines (FIG. 6, 7, 12). It counts as cell-based, human. The note with it: FIG. 7. How it is done: Efficacy of AsiDNA (4. 8 μM), olaparib (0, 0.1 and 1 μM) or both was monitored 6 days after treatment by cell counting after trypan blue labeling. (A) Percentage of living cells relative to non-treated condition (NT). (B) Percentage of dead cells. Data are expressed as mean+Sc.D. of at least 2 independent experiments. Dotted lines indicate the calculated cell survivals if additivity between AsiDNA and olaparib.
Efficacy of AsiDNA (4.8 μM), veliparib (0, 10 and 50 μM) or both was monitored 6 days after treatment by trypan blue staining. (A) Percentage of living cells relative to non-treated condition (NT). (B) Percentage of dead cells. Dotted lines indicate the calculated cell survivals if additivity between AsiDNA and veliparib.
The inventors monitored cell survival to combined treatment of 3 BC and 2 non-tumor cell lines with different sensitivities to Ola and AsiDNA alone (FIG. 6; Table 1). […] However, the combination remained more efficient or at least equal to the expected additive effect at all the tested doses. […] In contrast, the normal cells were insensitive to both, the combined and the single treatments with AsiDNA and Ola (FIG. 6; Table 1).

The test system of a further series is SK28 Lsh CTL. Kind of series: Cell survival, trypan blue counting. The series is classed as cell-based, human. Particulars: 4.80 μM of AsiDNA and/or 0.1 μM of Ola; day 6 after treatment.
In a further series the test system is HeLa BRCA1 SX. Kind of series: Cell survival, trypan blue counting. The series is classed as cell-based, human. The note with it: 4.80 μM of AsiDNA and/or 0.1 μM of Ola; day 6 after treatment.
The subject of a further series is MO59K. Kind of series: Cell survival, trypan blue counting. Particulars: 4.80 μM of AsiDNA and/or 0.1 μM of Ola; day 6 after treatment. The series is classed as cell-based, human.
For the next series, the system named is IM9. As to the kind of experiment: Cell survival, trypan blue counting. The series is classed as cell-based, human. The note with it: 4.80 μM of AsiDNA and/or 0.1 μM of Ola; day 6 after treatment.
Series [1] deals with MD227 human breast cancer cell lines grafted in the fat pad. Kind of series: In vivo test on tumor growth, breast cancer xenograft. The note with it: DT01 2.5 mg intratumoral and 2.5 mg subcutaneous daily for 5 days; Olaparib 200 mg/kg/day per os, 5 daily sessions; or both.
Method: Nude mice with xenografted MD227 human breast cancer cell lines grafted in the fat pad were treated by intratumoral administration of DT01 (5 mg/day) and Olaparib (200 mg/kg/day). Tumor growth was monitored (time zero: beginning of treatment). Eight to ten animals were treated per group (group 1: vehicle injection (grey line); group 2: DT01 (black dotted line); group 3: Olaparib (grey dotted line); group 4; DT01+ Olaparib (black line)). Treatment was administered 5 following days.
Human breast cancer xenograft tumors were obtained by injecting 4.10^6 tumor cells into the fat pad of adult female nude mice (Janvier, Le Genest Saint Isle, France). The animals were housed in the laboratory for at least 1 week before starting experiments. There were six animals per cage under controlled conditions of light and dark cycles (12 h: 12 h), relative humidity (55%), and temperature (21° C.). Food and tap water were available ad libitum. […] Mice were weighed every week and followed up for 280 days. For ethical reasons, the animals were sacrificed when tumors reached 1500 mm^3. The Local Committee on Ethics of Animal Experimentation approved all experiments.
For another series, the system named is MCF12A. Kind of series: Cell survival, trypan blue counting. It counts as cell-based, human. Particulars: 4.80 μM of AsiDNA and/or 0.1 μM of Ola; day 6 after treatment.
The next series relates to 53BP1 and Rad51 foci. As to the kind of experiment: 53BP1 and Rad51 foci immunostaining in MDAMB231 cells. The series is classed as cell-based, human. The note with it: MDAMB231, 24 h, 16 μM AsiDNA +/− 1 μM olaparib. The procedure:
FIG. 9: Effect of the combined treatment AsiDNA and olaparib on DNA repair. Representative images of γH2AX (red) and Rad51 or 53BP1 (green) foci in MDAMB231 (A) or MCF10 (C) cells treated 24 h with Ola and/or AsiDNA. (B, D) Numbering of 53BP1 and Rad51 foci in 100 MDAMB231 cells (B) or MCF10A cells (D) 24 h after Ola and/or AsiDNA treatment. Red bars represent the mean values. (E, F) DNA damage monitored by alkaline comet assay 24 h after Ola and/or AsiDNA treatment in MDAMB231 (E) or MCF10A (F) cells. ns: not significant; *: p<0.05; ****: p<0.0001.
FIG. 10: AsiDNA inhibits irradiation-induced 53BP1 foci. Numbering of 53BP1 foci in 100 MDAMB231 cells 2 h after 10Gy irradiation, 22 h after prior treatment with AsiDNA and/or Ola. Red bars represent the mean values. *: p<0.05; **: p<0.01; ****: p<0.0001.
For immunostaining, MDAMB231 cells are seeded on cover slips (Menzel, Braunschweig, Germany) at a concentration of 5×10^5 cells and incubated at 37° C. during 1 day. Cells are then treated with 16 μM AsiDNA+/−1 μM olaparib. 24 h after treatment, cells are fixed for 20 min in 4% paraformaldehyde/Phosphate-Buffered Saline (PBS 1×), permeabilized in 0.5% Triton X-100 for 10 min, blocked with 2% bovine serum albumin/PBS 1× and incubated with primary antibody for 1 h at 4° C. […]

The test system of the next series is HCT116. As to the kind of experiment: Cell survival, trypan blue counting. It counts as cell-based, human. Particulars: 4.80 μM of AsiDNA and/or 0.1 μM of Ola; day 6 after treatment.
The subject of the next series is SK28 Lsh DNA-PKcs. Kind of series: Cell survival, trypan blue counting. The series is classed as cell-based, human. The note with it: 4.80 μM of AsiDNA and/or 0.1 μM of Ola; day 6 after treatment.

Method for BC227: (§1) Cells were grown according to the supplier's instructions. Cell lines were maintained at 37° C. in a humidified atmosphere at 5% CO2.
(§2) AsiDNA or PARPi cytotoxicity was measured by relative survival and cell death quantification. Adherent cells were seeded in 24-well culture plates at appropriate densities and incubated 24 hours at 37° C. before AsiDNA and/or PARPi addition. Cells were harvested day 6aftertreatment, stained with 0.4% trypan blue (Sigma Aldrich, Saint-Louis, USA) and counted with a Burker chamber. Cell survival was calculated as ratio of living treated cells to living mock-treated cells. Cell death was calculated as the number of dead cells on the total number of counted cells. Additivity of the toxicity was calculated by the product of cell survivals to AsiDNA and cell survivals to PARPi.
Method for HCT116: as §1, §2
Method for HeLa BRCA1 SX: as §1, §2
Method for HeLa PARP1 KD: as §1, §2
Method for IM9: as §1, §2
Method for Jurkat: as §1, §2
Method for MCF12A: as §1, §2
Method for MO59K: as §1, §2
Method for SK28 Lsh DNA-PKcs: as §1, §2

For the compound `O=C(c1cc(Cc2n[nH]c(=O)c3ccccc23)ccc1F)N1CCN(C(=O)C2CC2)CC1` [Olaparib, 4-[(3-[(4-cyclopropylcarbonyl)piperazin-4-yl]carbonyl)-4-fluorophenyl]methyl(2H)-phthalazin-1-one], the “Survival (%/NT)” value in the series on Jurkat is listed as 68.4 %/NT; in the series on BC227, 75.3 %/NT; in the series on HeLa PARP1 KD it was 100.5 %/NT; with SK28 Lsh CTL, 80.6 %/NT; in the series with HeLa BRCA1 SX, 71.4 %/NT; in the series on MO59K, 117.3 %/NT. In addition, the “Survival (%/NT)” value worked out at 84.6 %/NT in the series with IM9, 88.5 %/NT with MCF12A, 82.9 %/NT in the series with HCT116 and 80.9 %/NT with SK28 Lsh DNA-PKcs. In the series on 3 BC cell lines, the “dose dependence of efficacy of single treatments” value is “dose dependent”. The “local skin toxicity or systemic toxicity” value in series [1] is “No local skin toxicity or systemic toxicity”. Also, the “γH2AX, 53BP1 and Rad51 foci in the absence of DNA damaging treatment” value in the series with 53BP1 and Rad51 foci was “induces the accumulation of DSBs”.
